Experimental data: patent US6362369B1, “Phthalic acid diamide derivatives fluorine-containing aniline compounds as starting material, agricultural and horticultural insecticides, and a method for application of the insecticides” (Nihon Nohyaku Co., Ltd., priority 1997, dated 2002)

Assays:
Type in all cases: in vivo
[1] = system: common cutworm (Spodoptera Litura); test: Insecticidal effect on common cutworm (Test Example 2); details: 500 ppm, 25° C.; for Insecticidal effect, Test Example 2: cabbage leaf immersed; for Insecticidal effect, Test Example 2 / Insecticidal effect on common cutworm (Test Example 2), judged grade: eight days after inoculation; for Insecticidal effect (Test Example 2), judged from mortality / Insecticidal effect on common cutworm (Test Example 2), judged grade: cabbage leaf dip; for Insecticidal effect (Test Example 2), judged from mortality: 8 days after inoculation; for Insecticidal effect on common cutworm (Test Example 2), judged grade: second-instar larvae
How it was run: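 2nd-instar larvae on air-dried treatment, closed dish, 25° C; dead/alive counted at day 8. Mortality calculated, graded by criterion. 3 × 10 insects.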

[2] = system: diamondback moth (Plutella xylostella); test: Insecticidal effect on diamondback moth (Test Example 1); details: for Insecticidal effect, Test Example 1 / Insecticidal effect (Test Example 1), judged from mortality: diamondback moth; for Insecticidal effect (Test Example 1), judged from mortality: judged by the criterion of Test Example 1; for Insecticidal effect on diamondback moth (Test Example 1), judged grade: mortality judged according to the criterion shown in Test Example 1
How it was run: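 Triplicate groups of 10 insects: eggs laid on Chinese cabbage seedling by adults, seedling immersed then air-dried, kept at 25° C. Day-6 hatch counts gave mortality, rated by criterion.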

[3] = system: rice leafroller (Cnaphalocrocis medinalis); test: Insecticidal effect on rice leafroller (Test Example 3); details: 500 ppm, 25° C., humidity 70%; for Insecticidal effect, Test Example 3: rice lamina immersed; for Insecticidal effect, Test Example 3 / Insecticidal effect on rice leafroller (Test Example 3), judged grade: four days after inoculation; for Insecticidal effect (Test Example 3), judged from mortality / Insecticidal effect on rice leafroller (Test Example 3), judged grade: rice lamina dip; for Insecticidal effect (Test Example 3), judged from mortality: 4 days after inoculation; for Insecticidal effect on rice leafroller (Test Example 3), judged grade: third-instar larvae
How it was run: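 Insecticidal effect is judged by a predefined criterion from dead/alive counts four days after infesting air-dried lamina with third-instar larvae, kept on moistened filter paper at 25° C, 70% humidity.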

[4] = common cutworm second-instar larvae
[5] = mortality judged by criterion of Test Example 1
[6] = rice leafroller third-instar larvae
[7] = second-instar larvae of common cutworm
[8] = third-instar larvae of rice leafroller
[9] = judged by the mortality criterion of Test Example 1

SMILES: Cc1cc(C(F)(C(F)(F)F)C(F)(F)F)ccc1NC(=O)c1ccc(F)c(Cl)c1C(=O)NC(C)(C)C [compound 1263]
- Insecticidal effect, Test Example 2 [1, 4]: A (100)
- Insecticidal effect, Test Example 1 [2, 5]: A (100)
- Insecticidal effect, Test Example 3 [3, 6]: A (100)

SMILES: Cc1cc(OC(F)F)ccc1NC(=O)c1cccc(F)c1C(=O)NC(C)(C)C [compound 1506]
- Insecticidal effect (Test Example 2), judged from mortality [1, 7]: A (100)
- Insecticidal effect (Test Example 1), judged from mortality [2]: A (100)
- Insecticidal effect (Test Example 3), judged from mortality [3, 8]: A (100)

SMILES: Cc1cc(C(F)(F)C(F)(F)F)ccc1NC(=O)c1cccc(F)c1C(=O)NC(C)C [compound 495]
- Insecticidal effect on common cutworm (Test Example 2), judged grade [1]: A (100)
- Insecticidal effect on diamondback moth (Test Example 1), judged grade [2]: A (100)
- Insecticidal effect on rice leafroller (Test Example 3), judged grade [3]: A (100)

SMILES: CC(C)(C)NC(=O)c1c(I)cccc1C(=O)Nc1ccc(OC(F)(F)F)cc1Cl [compound 1023]
- Insecticidal effect, Test Example 2 [1, 4]: A (100)
- Insecticidal effect, Test Example 1 [2, 5]: A (100)
- Insecticidal effect, Test Example 3 [3, 6]: A (100)

SMILES: CC(C)(C)NC(=O)c1c(I)cccc1C(=O)Nc1ccc(SC(F)(F)Br)cc1 [compound 1115]
- Insecticidal effect, Test Example 2 [1, 4]: A (100)
- Insecticidal effect, Test Example 1 [2, 5]: A (100)
- Insecticidal effect, Test Example 3 [3, 6]: A (100)

SMILES: Cc1cc(OC(F)(F)C(F)F)ccc1NC(=O)c1ccc(I)cc1C(=O)NC(C)C [compound 1248]
- Insecticidal effect, Test Example 2 [1, 4]: A (100)
- Insecticidal effect, Test Example 1 [2, 5]: A (100)
- Insecticidal effect, Test Example 3 [3, 6]: A (100)

SMILES: Cc1cc(I)ccc1NC(=O)c1cccc(Br)c1C(=O)NC(C)C [compound 274]
- Insecticidal effect, Test Example 2 [1, 7]: A (100)
- Insecticidal effect, Test Example 1 [2, 9]: A (100)
- Insecticidal effect, Test Example 3 [3, 8]: A (100)

SMILES: CC(C)NC(=O)c1c(I)cccc1C(=O)Nc1ccc(C=C(Cl)C(F)(F)F)cc1 [compound 917]
- Insecticidal effect on common cutworm (Test Example 2), judged grade [1]: A (100)
- Insecticidal effect on diamondback moth (Test Example 1), judged grade [2]: A (100)
- Insecticidal effect on rice leafroller (Test Example 3), judged grade [3]: A (100)

SMILES: CC(C)NC(=O)c1c(I)cccc1C(=O)Nc1ccc(C(F)(F)C(F)(F)F)cc1 [compound 895]
- Insecticidal effect on common cutworm (Test Example 2), judged grade [1]: A (100)
- Insecticidal effect on diamondback moth (Test Example 1), judged grade [2]: A (100)
- Insecticidal effect on rice leafroller (Test Example 3), judged grade [3]: A (100)

SMILES: Cc1cc(OC(F)F)ccc1NC(=O)c1c(I)cccc1C(=O)NC(C)C [compound 469]
- Insecticidal effect on common cutworm (Test Example 2), judged grade [1]: A (100)
- Insecticidal effect on diamondback moth (Test Example 1), judged grade [2]: A (100)
- Insecticidal effect on rice leafroller (Test Example 3), judged grade [3]: D (79-50)

SMILES: CCCNC(=O)c1c(I)cccc1C(=O)Nc1ccc(OC(F)(F)C(F)F)cc1C [compound 1058]
- Insecticidal effect, Test Example 2 [1, 4]: A (100)
- Insecticidal effect, Test Example 1 [2, 5]: A (100)
- Insecticidal effect, Test Example 3 [3, 6]: A (100)

SMILES: C#CC(C)(C)NC(=O)c1c(I)cccc1C(=O)Nc1ccc(OC(F)F)cc1C [compound 1635]
- Insecticidal effect (Test Example 2), judged from mortality [1, 7]: A (100)
- Insecticidal effect (Test Example 1), judged from mortality [2]: A (100)
- Insecticidal effect (Test Example 3), judged from mortality [3, 8]: A (100)

SMILES: CCc1cc(C(F)(C(F)(F)F)C(F)(F)F)ccc1NC(=O)c1cccc(I)c1C(=O)NC(C)C [compound 1714]
- Insecticidal effect (Test Example 2), judged from mortality [1, 7]: A (100)
- Insecticidal effect (Test Example 1), judged from mortality [2]: A (100)
- Insecticidal effect (Test Example 3), judged from mortality [3, 8]: A (100)

SMILES: Cc1cc(Br)ccc1NC(=O)c1cccc(I)c1C(=O)NC(C)C [compound 366]
- Insecticidal effect, Test Example 2 [1, 7]: A (100)
- Insecticidal effect, Test Example 1 [2, 9]: A (100)
- Insecticidal effect, Test Example 3 [3, 8]: A (100)

SMILES: CC(C)NC(=O)c1cccc(Cl)c1C(=O)Nc1ccc(C(F)(C(F)(F)F)C(F)(F)F)cc1Cl [compound 231]
- Insecticidal effect, Test Example 2 [1, 7]: B (99-90)
- Insecticidal effect, Test Example 3 [3, 8]: A (100)

SMILES: Cc1cc(OC(F)(F)C(F)(Cl)Cl)ccc1NC(=O)c1c(Cl)cccc1C(=O)NC(C)C [compound 228]
- Insecticidal effect, Test Example 2 [1, 7]: B (99-90)
- Insecticidal effect, Test Example 3 [3, 8]: A (100)

SMILES: Cc1ccc(NC(=O)c2cccc(Br)c2C(=O)NC(C)C)c(C)c1 [compound 264]
- Insecticidal effect, Test Example 2 [1, 7]: D (79-50)
- Insecticidal effect, Test Example 3 [3, 8]: A (100)

SMILES: Cc1cc(C(F)(F)C(F)(F)F)c(C)cc1NC(=O)c1cccc(I)c1C(=O)NC(C)(C)C [compound 1656]
- Insecticidal effect (Test Example 2), judged from mortality [1, 7]: A (100)
- Insecticidal effect (Test Example 3), judged from mortality [3, 8]: A (100)

SMILES: Cc1cc(OC(F)F)ccc1NC(=O)c1c(Cl)cccc1C(=O)NCc1ccccc1Cl [compound 1424]
- Insecticidal effect, Test Example 2 [1, 4]: A (100)
- Insecticidal effect, Test Example 3 [3, 6]: A (100)
